24 compounds from patent US20230104936A1, “TRPML MODULATORS” (Casma Therapeutics, Inc., priority 2019, published 2023) can be followed below.

In the experiment the test system is TFEB. Nature of the experiment: TFEB nuclear translocation assay, HeLa wt cells. In kind it is cell-based. As to conditions: Homo sapiens, HeLa, 2 h, 2 hrs compound treatment, Table 1 does not say HeLa wt or TRPML1 KO. In a few lines: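 HeLa wt or TRPML1 KO cells treated 2 hrs with compounds at 37° C, fixed in 4% PFA, immunostained with anti-TFEB plus Alexa 488 secondary and Hoechst. Imaged at ×20, four fields/well; read-out is nuclear/perinuclear-ring TFEB intensity ratio, reported as AC50.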
For `COCC1(C)CCN(c2ccccc2NS(=O)(=O)c2ccc3c(c2)OC(C)(C)C3)CC1` [Compound A-738, N-{2-[4-(methoxymethyl)-4-methylpiperidin-1-yl]phenyl}-2,2-dimethyl-2,3-dihydro-1-benzofuran-6-sulfonamide], the AC50 was ≤ 2 µM.
`CN(C)S(=O)(=O)c1ccc(S(=O)(=O)Nc2ccccc2N2CCN(C(=O)C34CC5CC(CC(C5)C3)C4)CC2)cc1` [Compound A-399, N4-{2-[4-(adamantane-1-carbonyl)piperazin-1-yl]phenyl}-N1,N1-dimethylbenzene-1,4-disulfonamide]: the half-maximal activity concentration (AC50) is ≤ 2 µM.
With `COCC1(C)CCN(c2ccccc2NS(=O)(=O)Cc2cccc(OC)c2)CC1` [Compound A-596, N-{2-[4-(methoxymethyl)-4-methylpiperidin-1-yl]phenyl}-1-(3-methoxyphenyl)methanesulfonamide] the figure was 2.01 to 8 µM; with `CN(C)S(=O)(=O)c1ccc(S(=O)(=O)Nc2cccc(F)c2N2CCC(N)(C(F)(F)F)CC2)cc1` [Compound A-821, N4-{2-[4-amino-4-(trifluoromethyl)piperidin-1-yl]-3-fluorophenyl}-N1,N1-dimethylbenzene-1,4-disulfonamide], ≤ 2 µM; with `COCC1(C(F)(F)F)CCN(c2ccccc2NS(=O)(=O)c2ccc(S(=O)(=O)N(C)C)cc2)CC1` [Compound A-777, N4-2-[4-(methoxymethyl)-4-(trifluoromethyl)piperidin-1-yl]phenyl-N1,N1-dimethylbenzene-1,4-disulfonamide], ≤ 2 µM.
With `CN(C)S(=O)(=O)c1ccc(S(=O)(=O)Nc2ccccc2N2CCN(CC(F)(F)C(F)F)CC2)cc1` [Compound A-551, N1,N1-dimethyl-N4-{2-[4-(2,2,3,3-tetrafluoropropyl)piperazin-1-yl]phenyl}benzene-1,4-disulfonamide] the figure was ≤ 2 µM; with `Cc1cccc(CS(=O)(=O)Nc2ccccc2N2CCC3(CC2)COC(C)(C)C3)c1` [Compound A-664, N-(2-{3,3-dimethyl-2-oxa-8-azaspiro[4.5]decan-8-yl}phenyl)-1-(3-methylphenyl)methanesulfonamide], ≤ 2 µM; with `CN(C)S(=O)(=O)c1ccc(S(=O)(=O)Nc2ccccc2N2CCC(C(=O)NC(C)(C)C)CC2)cc1` [Compound A-323, N-tert-butyl-1-{2-[4-(dimethylsulfamoyl)benzenesulfonamido]phenyl}piperidine-4-carboxamide], 2.01 to 8 µM.
With `CN1CCC(S(=O)(=O)Nc2ccccc2N2CCN(c3ccc(Cl)cc3F)CC2)CC1` [Compound A-16, N-{2-[4-(4-chloro-2-fluorophenyl)piperazin-1-yl]phenyl}-1-methylpiperidine-4-sulfonamide] the figure was 2.01 to 8 µM; with `CN(C)S(=O)(=O)c1ccc(S(=O)(=O)Nc2ccccc2N2CC3CCC2CN3c2ccc(Cl)cc2F)cc1` (stereo not drawn) [Compound A-26, N4-{2-[5-(4-chloro-2-fluorophenyl)-2,5-diazabicyclo[2.2.2]octan-2-yl]phenyl}-N1,N1-dimethylbenzene-1,4-disulfonamide], ≤ 2 µM; with `CC(C)(C)C(=O)N1CCN(c2ccccc2NS(=O)(=O)c2ccc(CC(F)(F)F)cc2)CC1` [Compound A-567, N-{2-[4-(2,2-dimethylpropanoyl)piperazin-1-yl]phenyl}-4-(2,2,2-trifluoroethyl)benzene-1-sulfonamide], ≥ 10 µM.
Turning to `CC(c1cccc(F)c1N1CCC(CN2C[C@@H](C)O[C@@H](C)C2)CC1)S(=O)(=O)c1ccc2c(c1)CCC2` (single isomer, unassigned) [Compound A-828], the AC50 was ≤ 2 µM.
With `CN(C)S(=O)(=O)c1ccc(S(=O)(=O)Nc2ccccc2N2CC(c3ccc(Cl)cc3)C2)cc1` [Compound A-56, N4-{2-[3-(4-chlorophenyl)azetidin-1-yl]phenyl}-N1,N1-dimethylbenzene-1,4-disulfonamide], the AC50 lay in the range of 2.01 to 8 µM.
`CN(C)S(=O)(=O)c1ccc(S(=O)(=O)Nc2cccc(C(F)F)c2N2CCC3(CC2)COC(C)(C)C3)cc1` [Compound A-753, N4-[3-(difluoromethyl)-2-{3,3-dimethyl-2-oxa-8-azaspiro[4.5]decan-8-yl}phenyl]-N1,N1-dimethylbenzene-1,4-disulfonamide]: the AC50 was ≤ 2 µM.
In the case of `O=S(=O)(Nc1ccccc1N1CCC(c2ccc(Cl)cc2F)CC1)c1c(F)cccc1F` [Compound A-81, N-{2-[4-(4-chloro-2-fluorophenyl)piperidin-1-yl]phenyl}-2,6-difluorobenzene-1-sulfonamide], the concentration at half-maximal activity (AC50) was ≥ 10 µM.
To `COC(C)(C)c1cccc(S(=O)(=O)Nc2ccccc2N2CCC3(CC2)COC(C)(C)C3)c1` [Compound A-634, N-(2-{3,3-dimethyl-2-oxa-8-azaspiro[4.5]decan-8-yl}phenyl)-3-(2-methoxypropan-2-yl)benzene-1-sulfonamide] belongs 2.01 to 8 µM; to `O=S(=O)(Nc1ccccc1N1CCC(c2ccc(F)cc2F)CC1)c1ccc(S(=O)(=O)C(F)(F)F)cc1` [Compound A-173, N-{2-[4-(2,4-difluorophenyl)piperidin-1-yl]phenyl}-4-trifluoromethanesulfonylbenzene-1-sulfonamide], ≤ 2 µM; to `C[C@@H]1COC[C@H](C)N1CC1CCN(c2c(F)cccc2NS(=O)(=O)c2ccc(S(=O)(=O)N(C)C)cc2)CC1` [Compound A-824, N4-[2-(4-{[(3R,5S)-3,5-dimethylmorpholin-4-yl]methyl}piperidin-1-yl)-3-fluorophenyl]-N1,N1-dimethylbenzene-1,4-disulfonamide], ≤ 2 µM.
With `CNCC1(c2ccc(F)cc2F)CCN(c2ccccc2NS(=O)(=O)c2ccc(S(=O)(=O)N(C)C)cc2)CC1` [Compound A-218, N4-{2-[4-(2,4-difluorophenyl)-4-[(methylamino)methyl]piperidin-1-yl]phenyl}-N1,N1-dimethylbenzene-1,4-disulfonamide] the figure was ≤ 2 µM; with `CS(=O)(=O)c1ccc(S(=O)(=O)Nc2ccccc2N2CCC(c3ccc(F)cc3F)CC2)cc1` [Compound A-100, N-{2-[4-(2,4-difluorophenyl)piperidin-1-yl]phenyl}-4-methanesulfonylbenzene-1-sulfonamide], ≤ 2 µM.
On to `CN(C)S(=O)(=O)c1ccc(S(=O)(=O)N(C)c2cccc(Cl)c2N2CCOCC2)cc1` [Compound A-286, N1-[3-chloro-2-(morpholin-4-yl)phenyl]-N1,N4,N4-trimethylbenzene-1,4-disulfonamide], for which the AC50 was ≥ 10 µM.
`COCCOCCOCCN(C)S(=O)(=O)c1ccc(S(=O)(=O)Nc2ccccc2N2CCC(c3ccc(Cl)cc3F)CC2)cc1` [Compound A-587, N4-{2-[4-(4-chloro-2-fluorophenyl)piperidin-1-yl]phenyl}-N1-{2-[2-(2-methoxyethoxy)ethoxy]ethyl}-N1-methylbenzene-1,4-disulfonamide] had an AC50 of 2.01 to 8 µM.
With `CN(C)S(=O)(=O)c1ccc(S(=O)(=O)n2nc(C3CCN(c4c(F)cccc4F)CC3)c3c2CCCC3)cc1` [Compound A-504, 4-({3-[1-(2,6-difluorophenyl)piperidin-4-yl]-4,5,6,7-tetrahydro-1H-indazol-1-yl}sulfonyl)-N,N-dimethylbenzene-1-sulfonamide], the AC50 is ≤ 2 µM.
To `C[C@@H](c1cccc(F)c1N1CCC(F)(F)CC1)S(=O)(=O)c1ccc(S(=N)(=O)N(C)C)cc1` (single isomer, unassigned) [Compound A-936] belongs ≤ 2 µM.

A word on the AC50: it is the midpoint of the concentration-response curve, whichever way the signal moves. The low end stands for activity at low concentration, the high end for activity only at high concentration.
